Where two headings read alike, the source gives them in different places. Non-standard residues stand in square brackets, D forms with d. No end group written: not given here.
Experiments:
purified vWf = purified vWf (Homo sapiens, UniProt P04275); experiment: Random D-peptide array on cellulose membrane probed with purified vWf; format: binding; conditions: detected by HRP anti-human-vWf IgG
Description: Random D-amino acid peptides (15 mer) were synthesized and probed with vWf to detect random sequences capable of binding vWf.
Random peptide arrays of 1120 peptides made of D-amino acids were synthesized on a cellulose membrane using an AutoSpot ASP 222 peptide synthesizer (ABiMED, Langenfeld, Germany). Resulting replicate libraries of 15-mer sequences were probed for vWf binding function by exposing the membranes to purified vWf after blocking with skim milk to prevent non-specific binding of horseradish peroxidase labelled goat anti-human-vWf IgG. The chemiluminescent substrate from the Amersham Pharmacia ECL kit detected positive spots that were recorded on photographic film. Negative controls consisted of probing the membranes with the antibodies without prior exposure of the membrane to purified vWf.
(§1) Peptides on random 15-mer peptide arrays that were built of D-amino acids were selected on the basis of their ability to bind to vWf. Only four positive sequences were identified: D-pep1—[…] (SEQ ID NO:4); D-pep2—[…] (SEQ ID NO:5); D-pep3—[…] (SEQ ID NO:6); and D-pep4—[…] (SEQ ID NO:7). D-pep2 (SEQ ID NO:5), D-pep3 (SEQ ID NO:6) and D-pep4 (SEQ ID NO:7) were synthesized for laboratory experimentation. D-pep3 (SEQ ID NO:6), 10 mg, was synthesized by UBC's Peptide Proteomic Centre and was solubilized in Hepes-saline buffer, pH 7.4 and used at 0.1-0.5 mg/mL. Fresh washed platelets ([…]) in Hepes buffer were added and agglutination was initiated by 1.25 mg/mL ristocetin (Sigma). Agglutination times and levels were monitored both microscopically and on an aggregometer (ChronoLog) as described by the manufacturer.

[1] = tested on: CD62/P-selectin on platelet surfaces; experiment: Flow cytometry of surface CD62 expression on platelets; format: cell-based, human; conditions: for Surface CD62 Expression, Activated Platelets: thrombin-activated platelets
Method: (§2) In order to prepare human platelets for testing, as approved by Canadian Blood Services' Ethics Board, samples of whole blood were drawn from healthy, consenting donors into 2.7-4.0 mL citrated tubes (BD, USA). Platelet rich plasma (PRP) was prepared from whole blood by centrifugation in a Beckman (CS-6R) bench-top centrifuge (r=203.57 mm, Beckman Coulter, USA) 164×g for 15 minutes. PRP from a number of unrelated donors were evaluated on an Adiva 120 Hematology Analyzer (Bayer, Canada) and standardized to a concentration of 300×10^9 platelets/L in HEPES buffered saline (HBS, 10 mM HEPES, 150 mM NaCl, pH 7.4).
(§3) 40 μL aliquots of HBS were mixed with 5 μL PRP and 5 μL of the material to be tested: 500 kDa native HPG; free peptides; or peptide-conjugated HPG at 1.0×10^−3 M to 1.0×10^−9 M. After 40 minutes of incubation at ambient temperature, 5 μL 0.01 mg/mL FITC-conjugated polyclonal sheep anti-human vWf IgG (Abcam, USA) or 5 μL of 2 mg/mL PE-conjugated monoclonal mouse anti-human CD62 IgG (Beckman-Coulter, Canada) was added and incubation was continued in the dark for 30 min. Thereafter the samples were diluted and fixed with 1.0 mL 0.2% formolsaline (0.2% formaldehyde, 150 mM NaCl, pH 7.20) before analysis on a FACS Canto flow cytometer (BD, USA).
The effect of native HPG, free peptides, and peptide-conjugated HPG on activated platelets using modifications of the above assay systems was also examined. Platelets were treated with either 5 μL 4.2 mg/mL ristocetin (Chrono-Log, USA) or 100 U thrombin (T6884, Sigma-Aldrich, Canada) with 5 μL GPRP fibrin inhibitor (G5779, Sigma-Aldrich, Canada) dissolved in HBS. This was done to determine whether the peptides and the peptide-conjugates can mitigate vWf and thrombin mediated platelet effects. Controls included incubation with mouse IgG-FITC/IgG-PE (Beckman-Coulter, Canada) of the same isotype, and/or omitting the conjugate. As a result, native HPG, free peptides, and peptide-conjugated HPG neither did they increase vWf binding to resting platelets (Table 5) or they could trigger platelet activation. […]

GPIb-vWf interaction = molecular target: T1, GPIb-vWf interaction (Homo sapiens, UniProt P07359); experiment: Flow cytometry inhibition of vWf binding to ristocetin-activated platelets in PRP; format: cell-based
T1 construct: Platelet rich plasma (PRP) was prepared from whole blood by centrifugation; endogenous in cells
Method: as §2
Thereafter the samples were diluted and fixed with 1.0 mL 0.2% formolsaline (0.2% formaldehyde, 150 mM NaCl, pH 7.20) before analysis on a FACS Canto flow cytometer (BD, USA).
The effect of native HPG, free peptides, and peptide-conjugated HPG on activated platelets using modifications of the above assay systems was also examined. Platelets were treated with either 5 μL 4.2 mg/mL ristocetin (Chrono-Log, USA) or 100 U thrombin (T6884, Sigma-Aldrich, Canada) with 5 μL GPRP fibrin inhibitor (G5779, Sigma-Aldrich, Canada) dissolved in HBS. […] Controls included incubation with mouse IgG-FITC/IgG-PE (Beckman-Coulter, Canada) of the same isotype, and/or omitting the conjugate.

[2] = tested on: vWf binding to resting platelets; experiment: Flow cytometry of vWf binding to resting platelets; format: cell-based, human
Method: as §2, §3
(§4) The effect of native HPG, free peptides, and peptide-conjugated HPG on activated platelets using modifications of the above assay systems was also examined. Platelets were treated with either 5 μL 4.2 mg/mL ristocetin (Chrono-Log, USA) or 100 U thrombin (T6884, Sigma-Aldrich, Canada) with 5 μL GPRP fibrin inhibitor (G5779, Sigma-Aldrich, Canada) dissolved in HBS. This was done to determine whether the peptides and the peptide-conjugates can mitigate vWf and thrombin mediated platelet effects. Controls included incubation with mouse IgG-FITC/IgG-PE (Beckman-Coulter, Canada) of the same isotype, and/or omitting the conjugate. As a result, native HPG, free peptides, and peptide-conjugated HPG neither did they increase vWf binding to resting platelets (Table 5) or they could trigger platelet activation.

GPIIbIIIa = experiment: Ristocetin-mediated GPIIbIIIa activation probed by PAC-1 antibody, flow cytometry; format: cell-based, human; conditions: at IC50 concentration, 60 minutes, PAC-1, p<0.05
Method: To show inhibition of the GPIb-vWf interaction in PRP, activation had to target the plasma component, specifically vWf, by ristocetin, rather than the consequences of platelet activators such as thrombin or ADP. Ristocetin mediated GPIb signaling was detected through GPIIbIIIa activation and flow cytometry. 5 μL resting PRP were incubated with […] (SEQ ID NO:8) or L100 at their respective IC50 concentrations for 60 minutes and 5 μL 4.2 mg/mL ristocetin was used to induce platelet activation. Consequent GPIIbIIIa activation was probed via a monoclonal FITC-conjugated PAC-1 antibody to the active conformation of GPIIbIIIa (BD, Canada).

platelets = experiment: Aggregometry, % aggregation on activation; format: cell-based, human; parameters: concentration or dose not given beside the values; conditions: ristocetin activation
Method: as §2, §4
The inhibition of platelet agglutination by vWf was observed both by light microscopy and lumiaggregometry (Table 5). No clumping was seen when resting platelets were incubated with free peptides, native HPG, or peptide-conjugated HPG.

fibrinogen = molecular target: T2, fibrinogen (Homo sapiens, UniProt P02671+P02675+P02679); experiment: Binding of D-amino acid-containing sequences to fibrinogen
T2 sequence (P02671 20-629 limits assumed): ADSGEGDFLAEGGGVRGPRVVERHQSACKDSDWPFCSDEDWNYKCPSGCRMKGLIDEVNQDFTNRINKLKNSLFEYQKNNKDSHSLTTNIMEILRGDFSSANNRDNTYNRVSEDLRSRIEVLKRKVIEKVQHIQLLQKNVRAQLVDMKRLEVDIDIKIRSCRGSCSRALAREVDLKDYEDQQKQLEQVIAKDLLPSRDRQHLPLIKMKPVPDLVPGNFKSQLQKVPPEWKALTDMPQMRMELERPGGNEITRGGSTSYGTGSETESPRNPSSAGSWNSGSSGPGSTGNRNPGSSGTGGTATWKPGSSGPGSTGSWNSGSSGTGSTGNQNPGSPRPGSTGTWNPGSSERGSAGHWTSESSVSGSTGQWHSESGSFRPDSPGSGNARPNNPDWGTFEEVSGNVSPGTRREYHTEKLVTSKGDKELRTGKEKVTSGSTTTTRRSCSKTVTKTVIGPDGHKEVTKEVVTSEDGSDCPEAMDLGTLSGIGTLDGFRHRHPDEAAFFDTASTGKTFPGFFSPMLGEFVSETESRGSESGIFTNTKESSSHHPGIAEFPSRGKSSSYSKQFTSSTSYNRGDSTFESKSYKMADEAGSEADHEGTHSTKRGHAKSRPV
T2 sequence (P02675 31-491): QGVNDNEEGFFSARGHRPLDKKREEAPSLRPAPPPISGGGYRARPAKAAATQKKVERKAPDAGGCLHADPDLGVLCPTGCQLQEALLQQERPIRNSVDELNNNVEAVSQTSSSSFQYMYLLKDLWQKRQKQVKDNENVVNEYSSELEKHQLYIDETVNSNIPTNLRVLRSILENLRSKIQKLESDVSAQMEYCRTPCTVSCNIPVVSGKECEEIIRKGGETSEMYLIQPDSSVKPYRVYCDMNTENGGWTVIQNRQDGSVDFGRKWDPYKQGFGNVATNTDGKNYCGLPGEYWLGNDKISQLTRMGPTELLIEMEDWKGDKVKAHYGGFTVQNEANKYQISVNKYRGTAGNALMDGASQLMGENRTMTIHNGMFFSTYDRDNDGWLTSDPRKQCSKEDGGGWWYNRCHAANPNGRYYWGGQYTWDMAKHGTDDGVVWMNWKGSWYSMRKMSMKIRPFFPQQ
T2 sequence (P02679 27-433 limits assumed): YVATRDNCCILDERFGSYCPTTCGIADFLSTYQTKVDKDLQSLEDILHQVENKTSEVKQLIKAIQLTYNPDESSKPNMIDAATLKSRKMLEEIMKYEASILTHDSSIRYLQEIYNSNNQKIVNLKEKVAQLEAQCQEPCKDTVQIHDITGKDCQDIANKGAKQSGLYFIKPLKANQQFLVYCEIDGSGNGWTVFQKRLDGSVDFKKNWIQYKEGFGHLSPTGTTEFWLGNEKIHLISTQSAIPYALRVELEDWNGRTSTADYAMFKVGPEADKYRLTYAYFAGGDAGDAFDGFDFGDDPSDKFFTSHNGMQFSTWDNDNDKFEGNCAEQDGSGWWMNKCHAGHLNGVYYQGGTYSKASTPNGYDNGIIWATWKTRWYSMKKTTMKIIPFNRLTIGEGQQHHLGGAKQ
Description: These peptides can be used to pull/capture fibrinogen from a solution as well as to inhibit the interaction between fibrinogen and its cognate receptor(s).

[3] = tested on: GPIb-vWf-mediated platelet agglutination; experiment: Inhibition of ristocetin-mediated agglutination of washed platelets (microscopy, aggregometer); format: cell-based, human; conditions: for % agglutination (aggregometry): at 10 minutes, washed platelets, ristocetin
Method: as §1

WQNEGTHVLSRCYEC ([dW][dQ][dN][dE]G[dT][dH][dV][dL][dS][dR][dC][dY][dE][dC]; cysteine pairing not given here) [D-pep2]
vWf binding on random 15-mer D-peptide array (purified vWf): positive

L100: HPG 500 kDa conjugate with about 100 L-peptides per HPG molecule (CGGGGGGSHAYIGLKDR; also: conjugated to HPG 500 kDa, about 100 L-peptides per HPG molecule, site not given here)
Surface CD62 Expression, Resting Platelets [1]: 20 ± 3
Surface CD62 Expression, Activated Platelets [1]: 71 ± 5″
inhibition of vWf binding to platelets (in words) (GPIb-vWf interaction): effective inhibitors
IC50 (GPIb-vWf interaction; expressed as peptide concentration, read-out: Peptide Concentration at Ic50): 210 µM
IC50 (GPIb-vWf interaction; inhibition of platelet-vWf binding, molar concentration of peptide or conjugate, read-out: Ic50): 1.1 µM
vWf Binding, Resting Platelets [2]: 23 ± 2′
GPIIbIIIa activation upon ristocetin stimulation (GPIIbIIIa): significantly attenuated

CGGGGGGSHAYIGLKDR [L-pep]
Surface CD62 Expression, Resting Platelets [1]: 18 ± 1
Surface CD62 Expression, Activated Platelets [1]: 72 ± 8″
IC50 (GPIb-vWf interaction): 48 µM
Aggregometry % Aggregation on Activation (platelets): 5 ± 5%
vWf Binding, Resting Platelets [2]: 24 ± 4′
GPIIbIIIa activation upon ristocetin stimulation (GPIIbIIIa): significantly attenuated

KYQCYAPAHPSYVNY (also: D-amino acids, places not given here)
ability to bind to fibrinogen (fibrinogen): bind to fibrinogen

FRIYYVYTTSQQDSC ([dF][dR][dI][dY][dY][dV][dY][dT][dT][dS][dQ][dQ][dD][dS][dC])
ability to bind to fibrinogen (fibrinogen): bind to fibrinogen

RSARMQVCWNAFKNR ([dR][dS][dA][dR][dM][dQ][dV][dC][dW][dN][dA][dF][dK][dN][dR]) [D-pep3]
% agglutination (aggregometry) ([3]; 0.1 mg/mL): 69%
% agglutination (aggregometry) ([3]; 0.25 mg/mL): 28%
% agglutination (aggregometry) ([3]; 0.5 mg/mL): 13%
ristocetin-mediated platelet agglutination by microscopy ([3]; 100-fold excess of peptide based on plasma vWf content, controls agglutinated within 5 minutes): prevented visible agglutination at 20 minutes
vWf binding on random 15-mer D-peptide array (purified vWf): positive

FKWSWEWQGQEAYYD ([dF][dK][dW][dS][dW][dE][dW][dQ]G[dQ][dE][dA][dY][dY][dD])
ability to bind to fibrinogen (fibrinogen): bind to fibrinogen

VSRQNGKQYWAIKEG ([dV][dS][dR][dQ][dN]G[dK][dQ][dY][dW][dA][dI][dK][dE]G) [D-pep1]
vWf binding on random 15-mer D-peptide array (purified vWf): positive

DSCPRDWDNNFLFFE ([dD][dS][dC][dP][dR][dD][dW][dD][dN][dN][dF][dL][dF][dF][dE]) [D-pep4]
vWf binding on random 15-mer D-peptide array (purified vWf): positive

SMTSMCYLIGAPKYK (also: D-amino acids, places not given here)
ability to bind to fibrinogen (fibrinogen): bind to fibrinogen

bovine serum albumin [reference compound]
% agglutination (aggregometry) ([3]; 0.5 mg/mL): 55%
